Data from US11040981B2, “Pyrrolotriazine compounds and methods of inhibiting TAM kinases” (Syros Pharmaceuticals, Inc., priority 2017, dated 2021).

Tests used:
MERTK = biological target: T1, MERTK (Homo sapiens, UniProt Q12866); test: TR-FRET kinase activity assay, MERTK; type: biochemical; conditions: for IC50: TR-FRET activity assay, ATP at Km, 60 minutes, read-out: Mer IC50; for FLT3/Mer ratio (FLT3 IC50/Mer IC50): ratio of Mer to FLT3: FLT3 IC50/Mer IC50
T1 sequence (Q12866 21-999): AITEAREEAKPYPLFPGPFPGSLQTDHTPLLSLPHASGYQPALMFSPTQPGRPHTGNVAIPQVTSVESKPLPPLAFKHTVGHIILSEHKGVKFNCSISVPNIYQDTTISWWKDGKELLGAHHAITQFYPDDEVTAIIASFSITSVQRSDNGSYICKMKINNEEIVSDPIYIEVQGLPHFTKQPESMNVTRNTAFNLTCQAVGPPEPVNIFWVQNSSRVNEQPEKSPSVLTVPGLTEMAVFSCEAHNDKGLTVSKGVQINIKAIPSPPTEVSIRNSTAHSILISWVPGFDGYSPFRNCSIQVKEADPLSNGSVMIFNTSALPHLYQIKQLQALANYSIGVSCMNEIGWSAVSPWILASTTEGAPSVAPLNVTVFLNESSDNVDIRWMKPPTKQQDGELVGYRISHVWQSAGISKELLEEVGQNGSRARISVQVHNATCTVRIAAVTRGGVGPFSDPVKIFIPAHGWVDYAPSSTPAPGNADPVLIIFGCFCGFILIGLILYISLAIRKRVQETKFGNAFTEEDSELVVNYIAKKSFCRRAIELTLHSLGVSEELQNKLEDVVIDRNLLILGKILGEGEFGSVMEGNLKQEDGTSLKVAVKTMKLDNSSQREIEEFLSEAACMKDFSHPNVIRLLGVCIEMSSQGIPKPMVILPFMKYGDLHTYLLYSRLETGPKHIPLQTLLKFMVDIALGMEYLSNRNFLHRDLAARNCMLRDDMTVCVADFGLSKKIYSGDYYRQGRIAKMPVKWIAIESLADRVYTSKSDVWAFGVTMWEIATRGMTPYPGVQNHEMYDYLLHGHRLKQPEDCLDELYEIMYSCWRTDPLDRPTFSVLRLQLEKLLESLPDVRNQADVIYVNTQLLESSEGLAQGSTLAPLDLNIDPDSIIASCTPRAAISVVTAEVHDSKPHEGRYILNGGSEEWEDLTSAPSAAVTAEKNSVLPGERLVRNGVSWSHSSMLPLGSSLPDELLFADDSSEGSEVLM
In short: (§1)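 IC50 reflects the drop in TR-FRET between Eu anti-phosphotyrosine antibody and labelled peptide after a 60-minute room-temperature reaction. Buffer was 50 mM HEPES pH 7.5 with 10 mM MgCl2, 1 mM EGTA, 0.01% Brij 35 and 1 mM DTT, with ATP at Km per enzyme and EDTA quench.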

FLT3 = biological target: T2, FLT3 (Homo sapiens, UniProt P36888); test: TR-FRET kinase activity assay, FLT3; type: biochemical; conditions: ATP at Km, 60 minutes
T2 sequence (P36888 27-993): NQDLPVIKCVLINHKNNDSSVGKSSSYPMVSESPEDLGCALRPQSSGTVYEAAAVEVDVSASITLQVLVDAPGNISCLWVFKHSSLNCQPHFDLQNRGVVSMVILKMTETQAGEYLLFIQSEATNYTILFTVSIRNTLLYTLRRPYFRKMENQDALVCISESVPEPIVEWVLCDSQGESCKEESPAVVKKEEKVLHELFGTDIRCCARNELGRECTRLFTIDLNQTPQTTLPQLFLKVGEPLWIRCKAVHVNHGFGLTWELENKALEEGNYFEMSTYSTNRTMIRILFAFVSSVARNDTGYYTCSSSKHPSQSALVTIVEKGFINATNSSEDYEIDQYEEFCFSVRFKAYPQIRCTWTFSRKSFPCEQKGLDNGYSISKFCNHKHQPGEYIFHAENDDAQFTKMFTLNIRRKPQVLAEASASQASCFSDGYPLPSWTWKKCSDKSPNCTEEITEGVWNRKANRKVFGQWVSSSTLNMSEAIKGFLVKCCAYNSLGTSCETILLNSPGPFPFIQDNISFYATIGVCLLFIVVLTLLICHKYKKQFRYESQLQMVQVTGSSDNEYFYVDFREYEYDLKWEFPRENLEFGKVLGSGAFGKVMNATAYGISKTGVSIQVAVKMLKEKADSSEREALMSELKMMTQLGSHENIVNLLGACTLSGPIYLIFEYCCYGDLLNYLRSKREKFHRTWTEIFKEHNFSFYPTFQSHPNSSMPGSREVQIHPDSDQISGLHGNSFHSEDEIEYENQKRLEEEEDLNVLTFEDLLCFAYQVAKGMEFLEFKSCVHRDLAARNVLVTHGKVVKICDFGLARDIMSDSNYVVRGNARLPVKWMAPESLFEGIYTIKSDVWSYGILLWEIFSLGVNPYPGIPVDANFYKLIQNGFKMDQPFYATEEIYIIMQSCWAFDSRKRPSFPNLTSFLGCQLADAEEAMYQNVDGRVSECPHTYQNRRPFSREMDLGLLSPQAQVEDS
In short: as §1

**Q.** Which IC50 (MERTK) does the source give for `CCCCC[C@H](C)Nc1ncc2c(-c3ccc(S(=O)(=O)N4CCOCC4)cc3)cc([C@H]3CC[C@@H](O)CC3)n2n1` [Compound 103, (1R,4s)-4-(2-((S)-heptan-2-ylamino)-5-(4-(morpholinosulfonyl)phenyl)pyrrolo[2,1-f][1,2,4]triazin-7-yl)cyclohexanol] here?
**A.** Its IC50 is no more than 100 nM.

**Q.** And the “FLT3/Mer ratio (FLT3 IC50/Mer IC50)” value (MERTK)?
**A.** The value was “++ (“++” represents a ratio of between 10 and 100)”.

**Q.** What about the IC50 (FLT3) of the same molecule?
**A.** The IC50 was 100 to 1000 nM.

**Q.** Which results are given for `COCC(C)Nc1ncc2c(C3CC4CCC(C3)N4C)cc(C3CCC(O)CC3)n2n1` (stereo not drawn) [Compound 191]?
**A.** IC50 (MERTK): ≤ 100 nM; FLT3/Mer ratio (FLT3 IC50/Mer IC50) (MERTK): +++ (“+++” represents a ratio of >100); IC50 (FLT3): 1000 to 10000 nM

**Q.** What does the source list for `COCC(C)Nc1ncc2c(-c3ccc(C4(N5CCN(C)CC5)CC4)cc3)cc(C3CCC(O)CC3)n2n1` (stereo not drawn) [Compound 185]?
**A.** IC50 (MERTK): ≤ 100 nM; FLT3/Mer ratio (FLT3 IC50/Mer IC50) (MERTK): ++ (“++” represents a ratio of between 10 and 100); IC50 (FLT3): 100 to 1000 nM

**Q.** Which IC50 (MERTK) does the source give for `COC[C@H](C)Nc1ncc2c(-c3ccc(C(=O)N4CCOCC4)cc3)cc([C@H]3CC[C@H](O)CC3)n2n1` [Compound 187, (4-(7-((trans)-4-hydroxycyclohexyl)-2-(((S)-1-methoxypropan-2-yl)amino)pyrrolo[2,1-f][1,2,4]triazin-5-yl)phenyl)(morpholino)methanone] here?
**A.** Its IC50 is no more than 100 nM.

**Q.** And the “FLT3/Mer ratio (FLT3 IC50/Mer IC50)” value (MERTK)?
**A.** The value was “+++ (“+++” represents a ratio of >100)”.

**Q.** And the IC50 (FLT3)?
**A.** The IC50 was 100 to 1000 nM.

**Q.** What does the source list for `CC(CC1CC1)Nc1ncc2c(-c3ccc(CN4CCOCC4)cc3)cc(C3CCC(O)CC3)n2n1` (stereo not drawn) [Compound 189]?
**A.** IC50 (MERTK): ≤ 100 nM; FLT3/Mer ratio (FLT3 IC50/Mer IC50) (MERTK): ++ (“++” represents a ratio of between 10 and 100); IC50 (FLT3): ≤ 100 nM

**Q.** What does the source list for `COCC(C)Nc1ncc2c(N3CCOCC3=O)cc(C3CCC(O)CC3)n2n1` (stereo not drawn) [Compound 192]?
**A.** IC50 (MERTK): 100 to 1000 nM; FLT3/Mer ratio (FLT3 IC50/Mer IC50) (MERTK): ++ (“++” represents a ratio of between 10 and 100); IC50 (FLT3): 1000 to 10000 nM

**Q.** With `COC[C@H](C)Nc1ncc2c(-c3cn(C)cn3)cc([C@H]3CC[C@H](O)CC3)n2n1` [Compound 186] as the molecule, how does the IC50 (MERTK) read?
**A.** The IC50 was no more than 100 nM.

**Q.** What about the “FLT3/Mer ratio (FLT3 IC50/Mer IC50)” value (MERTK) of the same molecule?
**A.** Its value is “++ (“++” represents a ratio of between 10 and 100)”.

**Q.** And the IC50 (FLT3)?
**A.** The IC50 was 100 to 1000 nM.

**Q.** For `Cc1cc(-c2cc(C3CCC(O)CC3)n3nc(NC(C)CC4CC4)ncc23)ccn1` (stereo not drawn) [Compound 190], which IC50 (MERTK) is on record?
**A.** Its IC50 is no more than 100 nM.

**Q.** And the “FLT3/Mer ratio (FLT3 IC50/Mer IC50)” value (MERTK)?
**A.** Its value is “+++ (“+++” represents a ratio of >100)”.

**Q.** What about the IC50 (FLT3) of the same molecule?
**A.** The IC50 was no more than 100 nM.

**Q.** `C[C@@H](COC(F)F)Nc1ncc2c(-c3ccc(CN4CCOCC4)cc3)cc([C@H]3CC[C@H](O)CC3)n2n1` [Compound 188] was tested. Which IC50 (MERTK) did it give?
**A.** The IC50 was no more than 100 nM.

**Q.** And the “FLT3/Mer ratio (FLT3 IC50/Mer IC50)” value (MERTK)?
**A.** Its value is “+++ (“+++” represents a ratio of >100)”.

**Q.** And the IC50 (FLT3)?
**A.** The IC50 was no more than 100 nM.
